Experimental data taken from patent publication US11753407B2, “Compounds for treating spinal muscular atrophy” (PTC Therapeutics, Inc., priority 2012, dated 2023).

How the values were obtained:
[1] = system: SMN2 minigene mRNA (SMN2-A minigene) in HEK293H cells; test: SMN2 minigene mRNA splicing RT-qPCR assay in cultured cells; type: cell-based, human; details: Homo sapiens, HEK293-H; concentration increasing full length SMN2 mRNA 1.5-fold relative to vehicle-treated cells; HEK293H cells with SMN2-A minigene, 24 hours, 7-point concentration data; read-out: EC1.5x for production of full length SMN2 mRNA
Method in brief: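 Read-out: minigene-specific full-length (exon 7-included) SMN2 mRNA by one-step multiplex RT-qPCR, normalized to GAPDH and divided by vehicle-treated level. Stable SMN2-A minigene HEK293H cells, 24 h compound exposure, 7 concentrations in duplicate. EC1.5× = concentration raising FL mRNA 1.5-fold.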

[2] = system: Smn protein in SMA patient fibroblast cells (GM03813); test: Smn protein assay in cultured cells (SMN HTRF); type: cell-based, human; details: SMA patient fibroblast cells, 48 hours; for EC1.5x for Smn protein expression: 7-point concentration curve, SMN HTRF, concentration producing 1.5 times Smn protein vs DMSO vehicle control; for maximum fold (Fold) increase of Smn protein: 7-point concentration data, fold relative to vehicle control
Method in brief: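 Read-out: HTRF 665/620 nm ratio, blank-subtracted as ΔF, then expressed as fold over DMSO vehicle. Fibroblasts from SMA patients were exposed to compounds for 48 h (7 points, 3.16-fold steps, triplicates). Values are EC1.5× and maximum fold Smn increase.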

Row | Structure (SMILES) | EC (1.5-fold increase) [1] [µM] | EC1.5x for Smn protein expression [2] | maximum fold (Fold) increase of Smn protein [2] | melting point [°C]
1 | COc1ccc(-c2cc(=O)n3cc(C4CCN(C)CC4)ccc3n2)cc1OC [Cpd 164, 2-(3,4-dimethoxyphenyl)-7-(1-methylpiperidin-4-yl)-4H-pyrido[1,2-a]pyrimidin-4-one] | 0.3 to 1 | ** (an EC1.5× between >1 μM and ≤3 μM is indicated by two stars (**)) | **** (a fold increase between >1.5 and ≤1.65 is indicated by four stars (****)) | 181 to 183
2 | Cc1nc2ccc(-c3cc(=O)n4cc(N5CCN(C)CC5)ccc4n3)cc2o1 [Cpd 171, 2-(2-methyl-1,3-benzoxazol-6-yl)-7-(4-methylpiperazin-1-yl)-4H-pyrido[1,2-a]pyrimidin-4-one] | < 0.1 | **** (an EC1.5x≤0.3 μM is indicated by four stars (****)) | ***** (a fold increase >1.65 is indicated by five stars (*****)) | 178 to 183
3 | Cc1cn(-c2cc(=O)n3cc(N4CCNCC4)ccc3n2)cn1 [Cpd 179, 2-(4-methyl-1H-imidazol-1-yl)-7-(piperazin-1-yl)-4H-pyrido[1,2-a]pyrimidin-4-one] | 0.3 to 1 | *** (an EC1.5× between >0.3 μM and ≤1 μM is indicated by three stars (***)) | ***** (a fold increase >1.65 is indicated by five stars (*****)) | 204 to 206
4 | COc1ncc(-c2cc(=O)n3cc(N4CCNCC4)ccc3n2)cc1F [Cpd 182, 2-(5-fluoro-6-methoxypyridin-3-yl)-7-(piperazin-1-yl)-4H-pyrido[1,2-a]pyrimidin-4-one] | 0.3 to 1 | *** (an EC1.5× between >0.3 μM and ≤1 μM is indicated by three stars (***)) | **** (a fold increase between >1.5 and ≤1.65 is indicated by four stars (****)) | 166 to 170
5 | COc1ccc(-c2cc(=O)n3cc(C4=CCN(C)CC4)ccc3n2)cc1OC [Cpd 188, 2-(3,4-dimethoxyphenyl)-7-(1-methyl-1,2,3,6-tetrahydropyridin-4-yl)-4H-pyrido[1,2-a]pyrimidin-4-one] | 0.1 to 0.3 | *** (an EC1.5× between >0.3 μM and ≤1 μM is indicated by three stars (***)) | ***** (a fold increase >1.65 is indicated by five stars (*****)) | 165 to 168
6 | C[C@H]1CN(c2ccc3nc(-c4cnn(C)c4)cc(=O)n3c2)CCN1 [Cpd 191, 7-[(3S)-3-methylpiperazin-1-yl]-2-(1-methyl-1H-pyrazol-4-yl)-4H-pyrido[1,2-a]pyrimidin-4-one] | 1 to 3 | ** (an EC1.5× between >1 μM and ≤3 μM is indicated by two stars (**)) | **** (a fold increase between >1.5 and ≤1.65 is indicated by four stars (****)) | 168 to 170
7 | Cc1cn2cc(-c3cc(=O)n4cc(N5CCNCC5)ccc4n3)cc(F)c2n1 [Cpd 209, 2-(8-fluoro-2-methylimidazo[1,2-a]pyridin-6-yl)-7-(piperazin-1-yl)-4H-pyrido[1,2-a]pyrimidin-4-one] | < 0.1 | **** (an EC1.5x≤0.3 μM is indicated by four stars (****)) | **** (a fold increase between >1.5 and ≤1.65 is indicated by four stars (****)) | 282 to 288
8 | COc1ccc(-c2ccc3nc(N4CCNCC4)cc(=O)n3c2)cc1F [Cpd 220, 7-(3-fluoro-4-methoxyphenyl)-2-(piperazin-1-yl)-4H-pyrido[1,2-a]pyrimidin-4-one] | 0.3 to 1 | – | ** (a fold increase between >1.2 and ≤1.35 is indicated by two stars (**)) | 202 to 206
9 | COc1ccc(-c2cc(=O)n3cc(OC4CCNCC4)ccc3n2)cc1OC [Cpd 237, 2-(3,4-dimethoxyphenyl)-7-(piperidin-4-yloxy)-4H-pyrido[1,2-a]pyrimidin-4-one] | 1 to 3 | – | *** (a fold increase between >1.35 and ≤1.5 is indicated by three stars (***)) | 221 to 224
10 | COc1ccc(-c2cc(=O)n3cc(N(C)[C@@H]4CCN(C)C4)ccc3n2)cc1F [Cpd 239, 2-(3-fluoro-4-methoxyphenyl)-7-{methyl[(3R)-1-methylpyrrolidin-3-yl]amino}-4H-pyrido[1,2-a]pyrimidin-4-one] | 1 to 3 | – | * (A maximum fold increase of ≤1.2 is indicated by one star (*)) | 143 to 149
11 | COc1ccc(-c2cc(=O)n3cc(C4=CCNCC4)ccc3c2)cc1OC [Cpd 245, 2-(3,4-dimethoxyphenyl)-7-(1,2,3,6-tetrahydropyridin-4-yl)-4H-quinolizin-4-one] | 0.3 to 1 | – | ** (a fold increase between >1.2 and ≤1.35 is indicated by two stars (**)) | 174 to 176
12 | COc1ccc(-c2cc(=O)n3cc(C4=CCN(C)CC4)ccc3c2)cc1OC [Cpd 249, 2-(3,4-dimethoxyphenyl)-7-(1-methyl-1,2,3,6-tetrahydropyridin-4-yl)-4H-quinolizin-4-one] | 0.3 to 1 | – | * (A maximum fold increase of ≤1.2 is indicated by one star (*)) | 194 to 196
13 | COc1ccc(-c2cc(=O)n3cc(C4=CCCNC4)ccc3n2)cc1OC [Cpd 263, 2-(3,4-dimethoxyphenyl)-7-(1,2,5,6-tetrahydropyridin-3-yl)-4H-pyrido[1,2-a]pyrimidin-4-one] | 0.3 to 1 | *** (an EC1.5× between >0.3 μM and ≤1 μM is indicated by three stars (***)) | **** (a fold increase between >1.5 and ≤1.65 is indicated by four stars (****)) | 146 to 150
14 | COc1ccc(-c2ccc3nc(N4CCC(N)CC4)cc(=O)n3c2)cc1F [Cpd 276, 2-(4-aminopiperidin-1-yl)-7-(3-fluoro-4-methoxyphenyl)-4H-pyrido[1,2-a]pyrimidin-4-one] | 0.3 to 1 | – | * (A maximum fold increase of ≤1.2 is indicated by one star (*)) | 268 to 283
15 | COc1ccc(-c2ccc3nc(C4=CCNCC4)cc(=O)n3c2)cc1F [Cpd 294, 7-(3-fluoro-4-methoxyphenyl)-2-(1,2,3,6-tetrahydropyridin-4-yl)-4H-pyrido[1,2-a]pyrimidin-4-one] | < 0.1 | * (An EC1.5× for Smn protein expression between >3 μM and ≤10 μM is indicated by one star (*)) | *** (a fold increase between >1.35 and ≤1.5 is indicated by three stars (***)) | 188 to 192
16 | Cc1nc2c(F)cc(-c3cc(=O)n4cc(N5CCN[C@@H](C)C5)ccc4n3)cc2o1 [Cpd 306, 2-(4-fluoro-2-methyl-1,3-benzoxazol-6-yl)-7-[(3S)-3-methylpiperazin-1-yl]-4H-pyrido[1,2-a]pyrimidin-4-one] | < 0.1 | **** (an EC1.5x≤0.3 μM is indicated by four stars (****)) | ***** (a fold increase >1.65 is indicated by five stars (*****)) | 207 to 209
17 | Cc1nc2ccc(-c3cc(=O)n4cc(N5CCN[C@@H](C)C5)ccc4c3)cc2o1 [Cpd 322, 2-(2-methyl-1,3-benzoxazol-6-yl)-7-[(3S)-3-methylpiperazin-1-yl]-4H-quinolizin-4-one] | < 0.1 | *** (an EC1.5× between >0.3 μM and ≤1 μM is indicated by three stars (***)) | **** (a fold increase between >1.5 and ≤1.65 is indicated by four stars (****)) | 115 to 117
18 | Cc1cn2nc(-c3cc(=O)n4cc(C5=CCNCC5)ccc4n3)cc2c(C)n1 [Cpd 342, 2-(4,6-dimethylpyrazolo[1,5-a]pyrazin-2-yl)-7-(1,2,3,6-tetrahydropyridin-4-yl)-4H-pyrido[1,2-a]pyrimidin-4-one] | < 0.1 | **** (an EC1.5x≤0.3 μM is indicated by four stars (****)) | ***** (a fold increase >1.65 is indicated by five stars (*****)) | 207 to 210
19 | Cc1nc2ccc(-c3cc(=O)n4nc(C5CCNCC5)ccc4n3)cc2s1.O=C(O)C(F)(F)F [Cpd 380, 2-(2-methyl-1,3-benzothiazol-6-yl)-7-(piperidin-4-yl)-4H-pyrimido[1,2-b]pyridazin-4-one trifluoroacetate (1:1)] | 0.1 to 0.3 | *** (an EC1.5× between >0.3 μM and ≤1 μM is indicated by three stars (***)) | **** (a fold increase between >1.5 and ≤1.65 is indicated by four stars (****)) | 230 to 235
20 | COc1ccc(-c2cc(=O)n3nc(C4=CCNCC4)ccc3n2)cc1OC [Cpd 398, 2-(3,4-dimethoxyphenyl)-7-(1,2,3,6-tetrahydropyridin-4-yl)-4H-pyrimido[1,2-b]pyridazin-4-one] | 0.3 to 1 | ** (an EC1.5× between >1 μM and ≤3 μM is indicated by two stars (**)) | ***** (a fold increase >1.65 is indicated by five stars (*****)) | 195 to 200
